Assay results from ChEMBL document CHEMBL1201862, “PubChem BioAssay data set” (2004).
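Grown in 96-well plates, cells were treated for 48 hours with each compound at five concentrations. Insufficient inhibition: endpoint recorded as highest concentration tested. GI50 marks 50% less growth.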 The source made the active and inactive calls. No stated cut-off is given here; in the data, active = GI50 up to about 1.1 µM and inactive = higher.

Experiments:
Experiment in all cases: NCI-60 cell line screen, 48 h
[1] = test system: NCI-H226
[2] = test system: UACC-257
[3] = test system: CAKI-1
[4] = test system: PC-3
[5] = test system: COLO 205
[6] = test system: NCI-H23
[7] = test system: IGROV-1
[8] = test system: BT-549
[9] = test system: Hs-578T
[10] = test system: 786-0
[11] = test system: A498
[12] = test system: LOX IMVI
[13] = test system: MCF7
[14] = test system: SK-MEL-28
[15] = test system: MDA-N
[16] = test system: M14
[17] = test system: DU-145
[18] = test system: T47D
[19] = test system: K562
[20] = test system: SK-MEL-2
[21] = test system: SF-295
[22] = test system: RXF 393
[23] = test system: EKVX
[24] = test system: OVCAR-4
[25] = test system: HCC 2998
[26] = test system: MDA-MB-231
[27] = test system: HCT-116
[28] = test system: SF-539
[29] = test system: HL-60
[30] = test system: TK-10
[31] = test system: SK-MEL-5
[32] = test system: SW-620
[33] = test system: HOP-92
[34] = test system: HT-29
[35] = test system: OVCAR-5
[36] = test system: HCT-15
[37] = test system: SF-268
[38] = test system: A549
[39] = test system: SK-OV-3
[40] = test system: MDA-MB-435
[41] = test system: KM12
[42] = test system: MOLT-4
[43] = test system: ACHN
[44] = test system: UO-31
[45] = test system: OVCAR-3
[46] = test system: CCRF-CEM
[47] = test system: SN12C
[48] = test system: UACC-62
[49] = test system: NCI-H522
[50] = test system: OVCAR-8
[51] = test system: NCI-H460
[52] = test system: RPMI-8226
[53] = test system: NCI/ADR-RES
[54] = test system: Malme-3M
[55] = test system: SR
[56] = test system: U-251
[57] = test system: HOP-62
[58] = test system: SNB-19

With COc1ccc(Nc2nc(N)c(C(=O)c3cccs3)s2)cc1 the GI50 [1] was 5.86 µM (inactive), the GI50 [2] was 9.31 µM (inactive) and the GI50 [3] was 5 µM (inactive). The GI50 [4] was 11.4 µM (inactive), the GI50 [5] was 3.98 µM (inactive) and the GI50 [6] was 12.8 µM (inactive). For the same compound, the GI50 [7] was 4.43 µM (inactive), the GI50 [8] was 23.3 µM (inactive) and the GI50 [9] was 11.5 µM (inactive). The GI50 [10] was 8.49 µM (inactive), the GI50 [11] was 6.68 µM (inactive) and the GI50 [12] was 6.67 µM (inactive). For the same compound, the GI50 [13] was 5.21 µM (inactive), the GI50 [14] was 31 µM (inactive) and the GI50 [15] was 3.92 µM (inactive). The GI50 [16] was 13.4 µM (inactive), the GI50 [17] was 5.56 µM (inactive) and the GI50 [18] was 15.8 µM (inactive). The GI50 [19] was 3.64 µM (inactive), the GI50 [20] was 10.9 µM (inactive) and the GI50 [21] was 10.9 µM (inactive). For the same compound, the GI50 [22] was 5.55 µM (inactive), the GI50 [23] was 16.9 µM (inactive) and the GI50 [24] was 9.73 µM (inactive). For the same compound, the GI50 [25] was 931 nM (active), the GI50 [26] was 26.2 µM (inactive) and the GI50 [27] was 3.22 µM (inactive). For the same compound, the GI50 [28] was 4.21 µM (inactive), the GI50 [29] was 3.56 µM (inactive) and the GI50 [30] was 5.08 µM (inactive). For the same compound, the GI50 [31] was 2.8 µM (inactive), the GI50 [32] was 5.45 µM (inactive) and the GI50 [33] was 21.1 µM (inactive). For the same compound, the GI50 [34] was 3.35 µM (inactive), the GI50 [35] was 15.8 µM (inactive) and the GI50 [36] was 3.11 µM. The GI50 [37] was 17 µM (inactive), the GI50 [38] was 5.7 µM (inactive) and the GI50 [39] was 20.6 µM (inactive). The GI50 [40] was 1.24 µM (inactive), the GI50 [41] was 2.99 µM (inactive) and the GI50 [42] was 2.51 µM (inactive). For the same compound, the GI50 [43] was 12.2 µM (inactive), the GI50 [44] was 6.1 µM (inactive) and the GI50 [45] was 3.47 µM (inactive). The GI50 [46] was 3.38 µM (inactive), the GI50 [47] was 27.5 µM (inactive) and the GI50 [48] was 11.3 µM (inactive). For the same compound, the GI50 [49] was 5.09 µM (inactive), the GI50 [50] was 19.2 µM (inactive) and the GI50 [51] was 3.1 µM (inactive). The GI50 [52] was 5.92 µM (inactive), the GI50 [53] was 10.7 µM (inactive) and the GI50 [54] was 30.1 µM (inactive). For the same compound, the GI50 [55] was 682 nM (active), the GI50 [56] was 7.5 µM (inactive) and the GI50 [57] was 16.9 µM (inactive). For the same compound, the GI50 [58] was 11 µM (inactive).
